Laboratory results as given in article PMC9090410 (Journal of Enzyme Inhibition and Medicinal Chemistry, 2022).

Assays:
[1] = system: HDACs from HeLa cell lysates; format: biochemical; conditions: for IC50: HeLa cell extract, fluorometric assay, incubating for 8 h, standard deviation in parentheses, read-out: HeLa Cell Lysate IC50
Experimental: (§1) Once prepared, the compounds were screened for inhibition of HDAC activity from the cell lysates of HeLa cells and the recombinant isoforms HDAC3 and HDAC8. […]
(§2) then added followed by further incubation for 10 min at 25 °C. The enzyme activities was measured based on the fluorescence intensity at excitation 350-380 nm and emission 440-480 nm in a plate reader. A control set of data without the presence of inhibitor was acquired using 45 µL of buffer.
(§3) Inhibitors 1-7 were screened using a commercially available In Situ Histone Deacetylase Activity […]
(§4) divergence being the 8 hr incubation time.

[2] = target: T1, Recombinant HDAC 8 (Homo sapiens, UniProt Q9BY41); assay: Recombinant HDAC8 inhibition, fluorometric assay, 8 h incubation; format: biochemical; conditions: for IC50: recombinant HDAC8, fluorometric assay, incubating for 8 h, standard deviation in parentheses
T1 construct: purchased not specified (Fisher Scientific, Sigma-Aldrich or Chem-Impex are named for all reagents)
T1 sequence (Q9BY41 1-377): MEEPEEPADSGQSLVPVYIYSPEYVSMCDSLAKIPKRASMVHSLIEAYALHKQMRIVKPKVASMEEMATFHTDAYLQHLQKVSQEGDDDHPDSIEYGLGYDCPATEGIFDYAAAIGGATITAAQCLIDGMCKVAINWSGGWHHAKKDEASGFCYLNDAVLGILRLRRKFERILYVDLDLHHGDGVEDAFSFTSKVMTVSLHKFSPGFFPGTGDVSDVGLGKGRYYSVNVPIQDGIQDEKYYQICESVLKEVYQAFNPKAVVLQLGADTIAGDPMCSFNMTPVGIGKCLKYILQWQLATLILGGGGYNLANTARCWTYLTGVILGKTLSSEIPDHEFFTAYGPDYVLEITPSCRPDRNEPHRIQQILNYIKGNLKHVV
Experimental: as §1, §2, §3, §4

[3] = target: T2, Recombinant HDAC 3 (Homo sapiens, UniProt O15379); assay: Recombinant HDAC3 inhibition, fluorometric assay, 8 h incubation; format: biochemical; conditions: for IC50: recombinant HDAC3, fluorometric assay, incubating for 8 h, standard deviation in parentheses
T2 construct: purchased not specified (Fisher Scientific, Sigma-Aldrich or Chem-Impex are named for all reagents)
T2 sequence (O15379 whole entry): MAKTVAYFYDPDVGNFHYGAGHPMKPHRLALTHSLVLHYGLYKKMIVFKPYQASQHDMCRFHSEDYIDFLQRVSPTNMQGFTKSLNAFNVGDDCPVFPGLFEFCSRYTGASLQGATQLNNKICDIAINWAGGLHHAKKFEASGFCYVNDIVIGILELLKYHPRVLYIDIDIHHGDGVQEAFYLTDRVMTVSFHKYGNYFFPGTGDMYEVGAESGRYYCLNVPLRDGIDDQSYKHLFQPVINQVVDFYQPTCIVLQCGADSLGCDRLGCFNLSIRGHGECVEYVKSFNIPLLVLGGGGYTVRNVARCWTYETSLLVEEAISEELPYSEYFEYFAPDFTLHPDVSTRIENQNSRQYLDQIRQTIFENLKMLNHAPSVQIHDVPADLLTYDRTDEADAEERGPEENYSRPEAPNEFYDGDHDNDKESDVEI
T2 sequence (Q9Y618 395-489 partner limits assumed): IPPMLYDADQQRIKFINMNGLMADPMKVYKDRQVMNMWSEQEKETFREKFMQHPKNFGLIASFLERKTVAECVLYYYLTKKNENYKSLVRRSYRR
Experimental: as §1, §2, §3, §4

[4] = system: HeLa cell lysates; conditions: 10 h incubation time; ref Kapustin et al. (23); read-out: IC50 Hela cell lysate; cited from earlier work
[5] = time course enzyme inhibition assay, inhibitor at 100 μM

O=C(CCCCCNP(=O)(O)O)Nc1ccccc1 [Compound 2]
IC50 [1]: 70 µM
Incubation time of optimal inhibition, HeLa cell lysate [1, 5]: 8 h
IC50 [2]: 129 µM
Incubation time of optimal inhibition, HDAC 8 [2, 5]: 8 h
IC50 [3]: 240 µM
Incubation time of optimal inhibition, HDAC 3 [3, 5]: 4 h

O=C(CCCCOP(=O)(O)O)Nc1ccccc1 [Compound 4]
IC50 [1]: 2200 µM

O=C(CCCCCOP(=O)(O)O)Nc1ccccc1 [Compound 5]
IC50 [1]: 60 µM
IC50 [2]: 179 µM
IC50 [3]: 690 µM

O=C(CCCCCCOP(=O)(O)O)Nc1ccccc1 [Compound 6]
IC50 [1]: 3900 µM

O=C(CCCCCOP(O)(O)=S)Nc1ccccc1 [Compound 7]
IC50 [1]: 50 µM
IC50 [2]: 49 µM
IC50 [3]: 103 µM

CP(=O)(O)CCCCCC(=O)Nc1ccccc1 [PA3]
IC50 [4]: 6100 µM
